Measurements published in patent US20260285853A1, “COMPOUNDS AND METHODS FOR MODULATING SPLICING” (REMIX THERAPEUTICS INC., priority 2023, published 2026).

Experiments:
Type in all cases: cell-based
[1] = system: SH-SY5Y (human neuroblastoma) cells; assay: Cell viability, Cell Titer Glo 2.0 assay; conditions: read-out: Viability SHSY5Y.3 GI50
Method in brief: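 Steps: serial DMSO dilution of compound, 1:100 dilution into medium, addition to cells (0.1% DMSO final). Incubate 72 h at 37 °C, 5% CO2. Assay with CellTiter-Glo 2.0 reagent.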

[2] = system: HTT mRNA; assay: Gene panel canonical junction qPCR assay, decrease in CJ mRNA, Table 3; conditions: decrease in canonical junction (CJ) mRNA, gene panel qPCR, Table 3
Method in brief: (§1)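 IC50 is the concentration giving 50% response in decrease of the canonical junction transcript, fitted with a 4-parameter logistic equation. Transcripts were quantified by RT-qPCR in A673 or K562 cells after 24 h exposure to compounds dosed up to 10 uM in 3-fold steps.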

[3] = system: MYB mRNA; assay: as above; conditions: decrease in canonical junction (CJ) mRNA, gene panel qPCR, Table 3
Method in brief: as §1

[4] = system: HTT mRNA; assay: Splicing RT-qPCR assay (THP), Table 2A; conditions: Table 2A (THP); for AC50: AJ mRNA increase, read-out: HTT AJ (increase in alternative junction mRNA, AC50); for IC50: CJ mRNA decrease, read-out: HTT CJ (decrease in canonical junction mRNA, IC50)
[5] = system: MYB mRNA; assay: Splicing RT-qPCR assay (THP), Table 2A; conditions: Table 2A (THP); for AC50: AJ mRNA increase, read-out: MYB AJ (increase in alternative junction mRNA, AC50); for IC50: CJ mRNA decrease, read-out: MYB CJ (decrease in canonical junction mRNA, IC50)

SMILES | GI50 [1] | IC50 [2] | IC50 [3] | AC50 [4] | IC50 [4] | AC50 [5] | IC50 [5]
Cn1cc2c(N3CCC(NC4CC4)CC3)cc(F)c(C(=O)Nc3cccnc3O)c2n1 [Compound 411, 4-[4-(cyclopropylamino)-1-piperidyl]-6-fluoro-N-(2-hydroxy-3-pyridyl)-2-methyl-indazole-7-carboxamide] | > 10 µM | 1 to 10 µM | > 10 µM | > 10 µM | 1 to 10 µM | > 10 µM | > 10 µM
COc1ncccc1NC(=O)c1c(F)cc(N2CCC(NC3CC3)CC2)c2cn(C)nc12 [Compound 412, 4-(4-(cyclopropylamino)piperidin-1-yl)-6-fluoro-N-(2-methoxypyridin-3-yl)-2-methyl-2H-indazole-7-carboxamide] | 1 to 10 µM | > 10 µM | 1 to 10 µM | > 10 µM | > 10 µM | 1 to 10 µM | 1 to 10 µM
COc1nnccc1NC(=O)c1c(F)cc(N2CCC(NC3CC3)CC2)c2cn(C)nc12 [Compound 413, 4-[4-(cyclopropylamino)-1-piperidyl]-6-fluoro-N-(3-methoxypyridazin-4-yl)-2-methyl-indazole-7-carboxamide] | 1 to 10 µM | 1 to 10 µM | > 10 µM | > 10 µM | 1 to 10 µM | 1 to 10 µM | > 10 µM
COc1ccncc1NC(=O)c1c(F)cc(N2CCC(NC3CC3)CC2)c2cn(C)nc12 [Compound 414, 4-[4-(cyclopropylamino)-1-piperidyl]-6-fluoro-N-(4-methoxy-3-pyridyl)-2-methyl-indazole-7-carboxamide] | > 10 µM | > 10 µM | > 10 µM | > 10 µM | > 10 µM | > 10 µM | > 10 µM
CCOc1cc2nn(C)cc2cc1NC(=O)c1c(F)cc(N2CCC(NC3CC3)CC2)c2cn(C)nc12 [Compound 415, 4-[4-(cyclopropyl-amino)-1-piperidyl]-N-(6-ethoxy-2-methylindazol-5-yl)-6-fluoro-2-methylindazole-7-carboxamide] | 0.1 to 1 µM | 0.1 to 1 µM | < 0.1 µM | 0.1 to 1 µM | 0.1 to 1 µM | < 0.1 µM | < 0.1 µM
Cc1nc(CNS(C)(=O)=O)cn2cc(NC(=O)c3c(F)cc(N4CCC(NC5CC5)CC4)c4cn(C)nc34)nc12 [Compound 416, 4-(4-(cyclopropylamino)-piper-idin-1-yl)-6-fluoro-2-meth-yl-N-(8-methyl-6-(methyl-sulfonamidomethyl)-imidazo[1,2-a]pyrazin-2-yl)-2H-indazole-7-carbox-amide 2,2,2-trifluoroacetate] | > 10 µM | > 10 µM | > 10 µM | > 10 µM | > 10 µM | > 10 µM | > 10 µM
Cc1cn2cc(NC(=O)c3c(F)cc(N4CCC(NC5CC5)CC4)c4cn(C)nc34)c(Oc3ccccc3)cc2n1 [Compound 417, 4-[4-(cyclopropylamino)-1-piperidyl]-6-fluoro-2-methyl-N-(2-methyl-7-phenoxyimidazo[1,2-a]pyridin-6-yl)-indazole-7-carboxamide] | 0.1 to 1 µM | > 10 µM | < 0.1 µM | 1 to 10 µM | > 10 µM | < 0.1 µM | < 0.1 µM
COc1cc2nn(C)c(C)c2cc1NC(=O)c1c(F)cc(N2CCC(NC3CC3)CC2)c2cn(C)nc12 [Compound 418, 4-[4-(cyclopropylamino)-1-piperidyl]-6-fluoro-N-(6-methoxy-2,3-dimethyl-indazol-5-yl)-2-methyl-indazole-7-carboxamide] | 0.1 to 1 µM | > 10 µM | 1 to 10 µM | > 10 µM | > 10 µM | 0.1 to 1 µM | 1 to 10 µM
COc1c(NC(=O)c2c(F)cc(N3CCC(NC4CC4)CC3)c3cn(C)nc23)cn2cc(C)nc(C)c12 [Compound 419, 4-[4-(cyclopropylamino)-1-piperidyl]-6-fluoro-N-(8-methoxy-1,3-dimethyl-pyrrolo[1,2-a]pyrazin-7-yl)-2-methyl-indazole-7-carboxamide] | 1 to 10 µM | > 10 µM | 1 to 10 µM | > 10 µM | > 10 µM | 1 to 10 µM | 1 to 10 µM
Cn1cc2c(N3CCC(NC4CC4)CC3)cc(F)c(C(=O)Nc3ccnnc3O)c2n1 [Compound 420, 4-[4-(cyclopropylamino)-1-piperidyl]-6-fluoro-N-(3-hydroxypyridazin-4-yl)-2-methyl-indazole-7-carboxamide] | > 10 µM | > 10 µM | > 10 µM | > 10 µM | > 10 µM | > 10 µM | > 10 µM
COc1cnncc1NC(=O)c1c(F)cc(N2CCC(NC3CC3)CC2)c2cn(C)nc12 [Compound 421, 4-[4-(cyclopropylamino)-1-piperidyl]-6-fluoro-N-(5-methoxypyridazin-4-yl)-2-methyl-indazole-7-carbox-amide] | 1 to 10 µM | > 10 µM | > 10 µM | > 10 µM | > 10 µM | > 10 µM | > 10 µM
Cn1cc2cc(NC(=O)c3c(F)cc(N4CCC(NC5CC5)CC4)c4cn(C)nc34)c(F)cc2n1 [Compound 422, 4-[4-(cyclopropylamino)-1-piperidy1]-6-fluoro-N-(6-fluoro-2-methyl-indazol-5-yl)-2-methyl-indazole-7-carboxamide] | 0.1 to 1 µM | 0.1 to 1 µM | < 0.1 µM | 0.1 to 1 µM | 0.1 to 1 µM | < 0.1 µM | < 0.1 µM
COc1cc(NC(=O)c2c(F)cc(N3CCC(NC4CC4)CC3)c3cn(C)nc23)cc2cn(C)nc12 [Compound 423, 4-[4-(cyclopropylamino)-1-piperidyl]-6-fluoro-N-(7-methoxy-2-methyl-indazol-5-yl)-2-methyl-indazole-7-carboxamide] | 1 to 10 µM | 1 to 10 µM | 0.1 to 1 µM | 1 to 10 µM | 1 to 10 µM | 0.1 to 1 µM | 0.1 to 1 µM
CC(=O)NCc1cn2cc(NC(=O)c3c(F)cc(N4CCC(NC5CC5)CC4)c4cn(C)nc34)nc2c(C)n1 [Compound 424, N-[6-(acetamidomethyl)-8-methyl-imidazo [1,2-a]pyrazin-2-yl]-4-[4-(cyclopropylamino)-1-piperidyl]-6-fluoro-2-methyl-indazole-7-carboxamide] | > 10 µM | > 10 µM | > 10 µM | > 10 µM | > 10 µM | > 10 µM | > 10 µM
COc1c(NC(=O)c2c(F)cc(N3CCC(NC4CC4)CC3)c3cn(C)nc23)cc2cn(C)nc2c1C [Compound 425, 4-[4-(cyclopropylamino)-1-piperidy1]-6-fluoro-N-(6-methoxy-2,7-dimethyl-indazol-5-y1)-2-methyl-indazole-7-carboxamide] | 0.1 to 1 µM | 1 to 10 µM | 0.1 to 1 µM | 1 to 10 µM | 1 to 10 µM | 0.1 to 1 µM | 0.1 to 1 µM
Cn1cc2c(N3CCC(NC4CC4)CC3)cc(F)c(C(=O)Nc3cc4cn(C)nc4n(C)c3=O)c2n1 [Compound 426, 4-[4-(cyclopropylamino)-1-piperidy1]-N-(2,7-dimethyl-6-oxo-pyrazolo[3,4-b]pyridin-5-y1)-6-fluoro-2-methyl-indazole-7-carboxamide] | 1 to 10 µM | 1 to 10 µM | 0.1 to 1 µM | 1 to 10 µM | 1 to 10 µM | 0.1 to 1 µM | 0.1 to 1 µM
Cc1cn2cc(NC(=O)c3c(F)cc(N4CCC(NC5CC5)CC4)c4cn(C)nc34)nc(-n3ccccc3=O)c2n1 [Compound 427, 4-[4-(cyclopropylamino)-1-piperidyl]-6-fluoro-2-methyl-N-[2-methyl-8-(2-oxo-1-pyridyl)-imidazo[1,2-a]-pyrazin-6-yl]-indazole-7-carboxamide] | > 10 µM | > 10 µM | > 10 µM | > 10 µM | > 10 µM | 1 to 10 µM | > 10 µM
COc1cc2nn(C)cc2cc1NC(=O)c1c(F)cc(N2[C@@H]3CC[C@H]2C[C@@H](NC2CC2)C3)c2cn(C)nc12 [Compound 428, 4-[(1R,5S)-3-(cyclo-propyl-amino)-8-azabicyclo [3.2.1]octan-8-yl]-6-fluoro-N-(6-methoxy-2-methyl-indazol-5-yl)-2-methyl-indazole-7-carboxamide] | 1 to 10 µM | > 10 µM | 1 to 10 µM | > 10 µM | > 10 µM | 1 to 10 µM | 1 to 10 µM
COc1cc2nn(C)cc2cc1NC(=O)c1c(F)cc(N2[C@@H]3CC[C@H]2C[C@H](NC2CC2)C3)c2cn(C)nc12 [Compound 429, 4-[(1S,5R)-3-(cyclopropyl-amino)-8-azabicyclo-[3.2.1]octan-8-yl]-6-fluoro-N-(6-methoxy-2-methyl-indazol-5-yl)-2-methyl-indazole-7-carboxamide] | 1 to 10 µM | 1 to 10 µM | 1 to 10 µM | > 10 µM | 1 to 10 µM | 1 to 10 µM | 1 to 10 µM
